What was measured:
SF-1 = target: T1, SF-1 (Homo sapiens, UniProt Q13285); test: SF1 degradation induction in NCI-H295R SF-1-HiBiT cells (HiBiT DC50); format: cell-based; conditions: 24 hr, concentration that induces 50% degradation of SF-1
T1 construct: NCI-H295R SF-1-HiBiT cells with HiBiT tag knocked in at the endogenous SF1 locus; host or cells: NCI-H295R SF-1-HiBiT (knock-in at endogenous locus)
Summary of the method: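 NCI-H295R cells carrying HiBiT-tagged SF-1, plated and grown 24 hr, then exposed to serially diluted compounds for 24 hr at 37° C. Remaining SF-1 read by lytic HiBiT luminescence; degradation rate from treated vs compound-free signal, DC50 as concentration giving 50% degradation.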

NCI-H295R cells = test: Proliferation inhibitory action on NCI-H295R (CellTiter-Glo, 7 days); format: cell-based, human; conditions: Homo sapiens, NCI-H295R, 168 h
Summary of the method: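 Compounds serially diluted in DMSO; cells seeded at 2×10^3 cells/well and cultured 7 days at 37° C, 5% CO2. CellTiter-Glo 2.0 luminescence read at day 0 and day 7; proliferation rate derived from compound-addition-day signal, untreated day-7 signal and treated day-7 signal.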

DC50 (SF-1) | GI50 (NCI-H295R cells) | SMILES
15 nM | 129 nM | COc1ccc([C@]2(CCN(Cc3ccc(C4=CC[C@H](C(=O)N5CCC(Nc6ccc7c(c6)CN(C6CCC(=O)NC6=O)C7=O)CC5)CC4)cc3)CC(C)(C)C(F)(F)F)CCOC(C)(C)C2)cc1 (stereo partly drawn) [BO4, 3-{5-[(1-{[(4R)-4′-{[{2-[(4R)-4-(4-Methoxyphenyl)-2,2-dimethyltetrahydro-2H-pyran-4-yl]ethyl)(3,3,3-trifluoro-2,2-dimethylpropyl)amino]methyl}-2,3,4,5-tetrahydro[biphenyl]-4-yl]carbonyl}piperidin-4-yl)amino]-1-oxo-1,3-dihydro-2H-isoindol-2-yl}piperidine-2,6-dione]
12 nM | 71 nM | COc1ccc([C@]2(CCN(Cc3ccc(C4=CC[C@H](C(=O)N5CCN(Cc6cc(F)c7c(c6)n(C)c(=O)n7C6CCC(=O)NC6=O)CC5)CC4)cc3)CC(C)(C)C(F)(F)F)CCOC(C)(C)C2)cc1 (stereo partly drawn) [BP6, 3-{7-Fluoro-5-[(4-{[(4R)-4′-{[{2-[(4R)-4-(4-methoxyphenyl)-2,2-dimethyltetrahydro-2H-pyran-4-yl]ethyl}(3,3,3-trifluoro-2,2-dimethylpropyl)amino]methyl}-2,3,4,5-tetrahydro[biphenyl]-4-yl]carbonyl}piperazin-1-yl)methyl]-3-methyl-2-oxo-2,3-dihydro-1H-benzimidazol-1-yl}piperidine-2,6-dione]
4.5 nM | 28 nM | COc1ccc([C@]2(CCN(Cc3ccc(C4=CC[C@H](C(=O)N5CCN(Cc6ccc7c(c6)n(C)c(=O)n7C6CCC(=O)NC6=O)CC5)CC4)c(F)c3)CC(C)(C)C(F)(F)F)CCOC(C)(C)C2)cc1 (stereo partly drawn) [BQ4, 3-{5-[(4-{[(4R)-2′-Fluoro-4′-{[{2-[(4R)-4-(4-methoxyphenyl)-2,2-dimethyltetrahydro-2H-pyran-4-yl]ethyl}(3,3,3-trifluoro-2,2-dimethylpropyl)amino]methyl}-2,3,4,5-tetrahydro[biphenyl]-4-yl]carbonyl}piperazin-1-yl)methyl]-3-methyl-2-oxo-2,3-dihydro-1H-benzimidazol-1-yl}piperidine-2,6-dione]
2.2 nM | 23 nM | COc1ccc([C@]2(CCN(Cc3ccc(C4=CC[C@H](C(=O)N5CCC(Nc6ccc7c(c6)n(C)c(=O)n7C6CCC(=O)NC6=O)CC5)CC4)c(F)c3)CC(C)(C)C(F)(F)F)CCOC(C)(C)C2)cc1 (stereo partly drawn) [BR3, 3-{5-[(1-{[(4R)-2′-Fluoro-4′-{[{2-[(4R)-4-(4-methoxyphenyl)-2,2-dimethyltetrahydro-2H-pyran-4-yl]ethyl)(3,3,3-trifluoro-2,2-dimethylpropyl)amino]methyl}-2,3,4,5-tetrahydro[biphenyl]-4-yl]carbonyl}piperidin-4-yl)amino]-3-methyl-2-oxo-2,3-dihydro-1H-benzimidazol-1-yl}piperidine-2,6-dione]
14 nM | 70 nM | COc1ccc([C@]2(CCN(Cc3ccc(C4=CC[C@H](C(=O)N5CCC(Nc6ccc7c(c6)C(=O)N(C6CCC(=O)NC6=O)C7)CC5)CC4)cc3)CC(C)(C)C(F)(F)F)CCOC(C)(C)C2)cc1 (stereo partly drawn) [BS3, 3-{6-[(1-{[(4R)-4′-{[{2-[(4R)-4-(4-Methoxyphenyl)-2,2-dimethyltetrahydro-2H-pyran-4-yl]ethyl)(3,3,3-trifluoro-2,2-dimethylpropyl)amino]methyl}-2,3,4,5-tetrahydro[biphenyl]-4-yl]carbonyl}piperidin-4-yl)amino]-1-oxo-1,3-dihydro-2H-isoindol-2-yl}piperidine-2,6-dione]
3.5 nM | 48 nM | COc1ccc([C@]2(CCN(Cc3ccc(C4=CC[C@H](C(=O)N5CCC(Nc6cc7c(cc6F)n(C6CCC(=O)NC6=O)c(=O)n7C)CC5)CC4)cc3)CC(C)(C)C(F)(F)F)CCOC(C)(C)C2)cc1 (stereo partly drawn) [BT6, 3-{6-Fluoro-5-[(1-{[(4R)-4′-{[{2-[(4R)-4-(4-methoxyphenyl)-2,2-dimethyltetrahydro-2H-pyran-4-yl]ethyl}(3,3,3-trifluoro-2,2-dimethylpropyl)amino]methyl}-2,3,4,5-tetrahydro[biphenyl]-4-yl]carbonyl}piperidin-4-yl)amino]-3-methyl-2-oxo-2,3-dihydro-1H-benzimidazol-1-yl}piperidine-2,6-dione]
